Assay results as given in paper PMC3038857, “Using Nuclear Receptor Activity to Stratify Hepatocarcinogens” (PLoS ONE, 2011).
Like-named read-outs stand apart in the source and are kept apart here.

Legend:
RXRa (RXRA) = target: T1, RXRa (RXRA) (Homo sapiens, UniProt P19793); assay: NCGC_RXRa_Agonist: GAL4 BLAM Reporter gene assay: RXRa; assay type: cell-based; details: agonist mode
T1 sequence (P19793 227-462 limits assumed): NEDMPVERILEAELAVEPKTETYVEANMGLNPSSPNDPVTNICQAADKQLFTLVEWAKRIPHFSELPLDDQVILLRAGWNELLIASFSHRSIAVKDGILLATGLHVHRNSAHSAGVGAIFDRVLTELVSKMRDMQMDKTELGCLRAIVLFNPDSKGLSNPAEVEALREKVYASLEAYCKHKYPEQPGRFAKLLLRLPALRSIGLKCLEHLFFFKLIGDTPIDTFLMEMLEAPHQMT
Description: (§1) These assays measure binding constants and enzyme inhibition values for nuclear receptors. The targets include [drawing 67] , [drawing 68] , [drawing 69] , [drawing 70] , [drawing 71] , [drawing 72] , [drawing 73] , [drawing 74] , [drawing 75] and [drawing 76] . Each of the nuclear receptor targets was measured in agonist mode. Assays were run at the NIH Chemical Genomics Center (Rockville, MD).
(§2) Cell-based HTS Assays: These assays measuring binding constants and enzyme inhibition values for nuclear receptors. The targets include AR, ER, FXR, LXR, PPARα, PPARδ, PPARγ, RXRα, RXRβ and PXR. Each of the nuclear receptor targets was measured in both agonist and antagonist mode, but the antagonist data is still undergoing analysis due to possible interference between cytotoxicity and assay activity, so antagonist mode data were not used in the present analysis. Assays were run at the NIH Chemical Genomics Center (Rockville, MD) as part of the Tox21 collaboration. […] The R^2 was required to be ≥0.5. Values where only the highest concentration exceeded 50% activity were excluded to eliminate weak or false positives. Detailed description of the methods, data and analysis methods for this dataset will be presented in a separate publication.

Rat Liver [1] = details: ref ToxRefDB, cited from earlier work
Rat Liver [2] = details: ref ToxRefDB, cited from earlier work; remark: listed apart in the source
Rat Liver [3] = details: ref ToxRefDB, cited from earlier work; remark: listed apart in the source
[4] = target: T2, PPARG (peroxisome proliferator-activated receptor gamma) (Homo sapiens, UniProt P37231); assay: ATG_PPARg_TRANS: Factorial reporter gene assay (HepG2); assay type: cell-based; details: HepG2 reporter
T2 construct: expressed in transfected cells; host or cells: HepG2
T2 sequence (P37231 1-505): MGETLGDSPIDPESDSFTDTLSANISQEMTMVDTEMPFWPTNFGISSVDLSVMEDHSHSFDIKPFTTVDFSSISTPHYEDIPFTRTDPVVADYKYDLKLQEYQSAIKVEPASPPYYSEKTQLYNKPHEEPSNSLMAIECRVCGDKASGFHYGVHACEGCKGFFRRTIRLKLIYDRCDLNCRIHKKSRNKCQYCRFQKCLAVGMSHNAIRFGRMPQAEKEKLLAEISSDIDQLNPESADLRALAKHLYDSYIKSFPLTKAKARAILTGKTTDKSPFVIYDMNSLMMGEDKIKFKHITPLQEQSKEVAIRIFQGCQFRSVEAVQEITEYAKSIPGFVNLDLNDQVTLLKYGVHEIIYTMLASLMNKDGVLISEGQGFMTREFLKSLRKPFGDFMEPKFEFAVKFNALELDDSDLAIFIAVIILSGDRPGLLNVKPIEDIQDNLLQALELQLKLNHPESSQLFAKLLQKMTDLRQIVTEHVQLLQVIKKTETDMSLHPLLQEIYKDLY
Outline: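 Seven test concentrations were run, beginning at the MTC and diluted three-fold serially. PXRE activity came from cis reporters, a 48-site MRTU library in HepG2 hepatoma cells. ERRg, FXR and PPARg activity came from trans one-hybrid reporters, an additional 25-member MRTU set.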

CYP1A1 = assay: CLZD_CYP1A1: Change in expression of CYP1A1 (primary human hepatocytes); assay type: cell-based; details: 24 hr
Outline: (§3)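 Primary human hepatocyte cultures were exposed to test chemicals at 5 concentrations (0.004-40 µM) for 6, 24 or 48 hr.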

CYP1A2 = assay: CLZD_CYP1A2: Change in expression of CYP1A2 (primary human hepatocytes); assay type: cell-based; details: 24 hr
Outline: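 Chemicals are tested in human hepatocyte primary cultures over 0.004-40 µM (5 concentrations) for 6, 24 or 48 hr, and concentration- and time-dependent transcript changes are read by quantitative nuclease protection assay.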

CYP2B6 = assay: CLZD_CYP2B6: Change in expression of CYP2B6 (primary human hepatocytes); assay type: cell-based; details: 24 hr
Outline: as §3

PPARg (PPARG) = target: T3, PPARg (PPARG) (Homo sapiens, UniProt P37231); assay: NCGC_PPARg_Agonist: GAL4 BLAM Reporter gene assay: PPARg; assay type: cell-based; design: expressed in transfected cells; host or cells: HEK293; details: agonist mode
T3 sequence (P37231 1-505): T2 sequence (P37231 1-505)
Description: as §1, §2

ABCB1 = assay: CLZD_ABCB1: Change in expression of ABCB1 (primary human hepatocytes); assay type: cell-based; details: 24 hr
Outline: as §3

ABCB11 = assay: CLZD_ABCB11: Change in expression of ABCB11 (primary human hepatocytes); assay type: cell-based; details: 24 hr
Description: This is a collection of multiplexed gene expression assays focused on Phase I and II xenobiotic metabolizing enzymes and transporters. Human primary cell cultures were treated with chemicals at 5 concentrations (0.004-40 [drawing 42] M) for 6, 24 and 48 hr. Concentration- and time-response profiles of chemicals were measured by the expression of key nuclear receptor target genes, activities of CYP1A enzymes (EROD), and cell morphology. Fourteen gene targets were monitored by quantitative nuclease protection assay including: six representative cytochrome P-450 genes, four hepatic transporters, three Phase II conjugating enzymes, and one endogenous metabolism gene involved in cholesterol synthesis. The target genes associated with nuclear receptor pathways are as follows: [drawing 43] and [drawing 44] with [drawing 45]; [drawing 46] , [drawing 47] , [drawing 48] , [drawing 49] , [drawing 50] and [drawing 51] with [drawing 52]; [drawing 53] , [drawing 54] , [drawing 55] and [drawing 56] with [drawing 57]; [drawing 58] with [drawing 59]; and [drawing 60] with [drawing 61] . Assays were run in primary human hepatocyte cultures by CellzDirect Invitrogen Inc. (Durham, NC), in collaboration with EPA.
Multiplexed Gene Expression in Human Primary Hepatocytes: This is a collection of multiplexed gene expression assays focused on Phase I and II metabolic enzymes and transporters. […] Fourteen gene targets were monitored by quantitative nuclease protection assay: six representative cytochrome P450 genes, four hepatic transporters, three Phase II conjugating enzymes, and one endogenous metabolism gene involved in cholesterol synthesis. Cells were exposed at 5 concentrations (0.004-40 µM) for 6, 24 or 48 hr. Gene targets are sentinels for five nuclear receptor signaling pathways: AhR, CAR, PXR, FXR, and PPARα. All gene are associated with nuclear receptor pathways: CYP1A1 and CYP1A2 with AHR; ABCB1, ABCG2, CYP2B6, CYP2C9, CYP2C19 and UGT1A1 with CAR; CYP3A4, GSTA2, SLCO1B1 and SULT2A1 with PXR; HMGCS2 with PPARA; and ABCB11 with FXR. […] Detailed description of the methods, data and analysis methods for this dataset will be presented in a separate publication.

PXR Human (NR1I2) = target: T4, PXR Human (NR1I2) (Homo sapiens, UniProt O75469); assay: NCGC_PXR_Agonist_human: GAL4 BLAM Reporter gene assay: PXR Human; assay type: cell-based; details: agonist mode
T4 sequence (O75469 146-434 limits assumed): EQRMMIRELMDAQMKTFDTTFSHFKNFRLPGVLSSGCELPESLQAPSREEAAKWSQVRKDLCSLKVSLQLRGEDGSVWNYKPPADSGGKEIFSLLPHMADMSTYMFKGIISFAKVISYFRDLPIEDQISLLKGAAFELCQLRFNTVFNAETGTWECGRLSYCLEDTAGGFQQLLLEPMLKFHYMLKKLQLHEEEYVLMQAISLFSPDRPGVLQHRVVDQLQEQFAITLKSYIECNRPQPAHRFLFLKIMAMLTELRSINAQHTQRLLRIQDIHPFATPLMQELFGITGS
Outline: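 Tox21 cell-based screens at NCGC using GAL4-fused receptor beta-lactamase reporters. Responses active only at the top concentration (above 50%) were discarded, and fits needed R^2 of at least 0.5.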

CAR (NR1I3) = target: T5, CAR (NR1I3) (Homo sapiens, UniProt Q14994); assay: ATG_PBREM_CIS: Factorial reporter gene assay (HepG2); assay type: cell-based; design: endogenous in cells; host or cells: HepG2; details: HepG2 reporter
T5 sequence (Q14994 1-352): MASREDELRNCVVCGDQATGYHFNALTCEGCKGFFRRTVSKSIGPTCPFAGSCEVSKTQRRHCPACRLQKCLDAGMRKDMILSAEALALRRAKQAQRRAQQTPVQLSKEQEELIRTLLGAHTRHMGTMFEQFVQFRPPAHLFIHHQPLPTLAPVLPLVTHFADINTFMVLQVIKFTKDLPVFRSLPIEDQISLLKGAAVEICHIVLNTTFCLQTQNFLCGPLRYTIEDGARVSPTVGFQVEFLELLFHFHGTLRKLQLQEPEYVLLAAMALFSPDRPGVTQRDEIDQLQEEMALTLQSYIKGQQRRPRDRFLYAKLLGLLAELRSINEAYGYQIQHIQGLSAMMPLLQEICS
Description: A multiple reporter transcription unit (MRTU) library consisting of 48 transcription factor binding sites was transfected into the HepG2 human liver hepatoma cell line. In addition to the cis-acting reporter genes (CIS), a modification of the approach was used to generate a trans-system (TRANS) with a mammalian one-hybrid assay consisting of an additional 25 MRTU library reporting the activity of nuclear receptor super-family members. […] These assays were performed by Attagene Inc. (Morrisville NC) under contract to EPA.
In addition to the cis-acting reporter genes (CIS), a modification of the approach was used to generate a trans-system (TRANS) with a mammalian one-hybrid assay consisting of an additional 25 MRTU library reporting the activity of nuclear receptor super-family members. […] Chemicals were then tested in the CIS and TRANS assays at seven concentrations starting at the MTC and followed by three-fold serial dilutions. These assays were performed by Attagene Inc. (Morrisville NC) under contract to EPA. Detailed description of the methods, data and analysis methods for this dataset will be presented in a separate publication.

| SMILES | NCGC_RXRa_Agonist (RXRa (RXRA)) | CLZD_CYP1A1_24 (CYP1A1) | CLZD_CYP2B6_24 (CYP2B6) | CHR_Rat_Liver_1_AnyLesion (Rat Liver [1]; chronic study, rat liver) | CHR_Rat_Liver_2_PreneoplasticLesion (Rat Liver [2]; chronic study, rat liver) | CHR_Rat_Liver_3_NeoplasticLesion (Rat Liver [3]; chronic study, rat liver) | also measured |
| --- | --- | --- | --- | --- | --- | --- | --- |
| CS(=O)(=O)c1ccc(C(=O)C2C(=O)CCCC2=O)c([N+](=O)[O-])c1 [row 195] | 4.471 |  |  |  |  |  | CHR_Rat_Liver_1_AnyLesion (Rat Liver [1]; chronic rat study, liver): 6; CHR_Rat_Liver_2_PreneoplasticLesion (Rat Liver [2]; chronic rat study, liver): 0; CHR_Rat_Liver_3_NeoplasticLesion (Rat Liver [3]; chronic rat study, liver): 0 |
| OCCOc1ccccc1 [r243] | 4.774 |  |  |  |  |  |  |
| Fc1ccc(Oc2ccnc3cc(Cl)cc(Cl)c23)cc1 [r277] |  | 5.128 | 4.999 | 0 | 0 | 0 | ATG_PPARg_TRANS [4]: 5.18; CLZD_CYP1A2_24 (CYP1A2): 5.172; NCGC_PPARg_Agonist (PPARg (PPARG)): 5.174 |
| C=C(C)[C@H]1Cc2c(ccc3c2O[C@@H]2COc4cc(OC)c(OC)cc4[C@@H]2C3=O)O1 [r282] |  | 5.398 | 5.235 | 0 | 0 | 0 | CLZD_ABCB1_24 (ABCB1): 4.54; CLZD_ABCB11_24 (ABCB11): 5.217; NCGC_PXR_Agonist_human (PXR Human (NR1I2)): 4.77; ATG_PBREM_CIS (CAR (NR1I3)): 6.638 |
